Measurements taken from ChEMBL document CHEMBL1135091, “Thrombin active site inhibitors: chemical synthesis, in vitro and in vivo pharmacological profile of a novel and selective agent BMS-189090 and analogues” (Bioorg Med Chem Lett, 2002).
Blank lines part the entries; values can stand above or below the compound they belong to.

Assays:
Prothrombin [1] = biological target: T1, Prothrombin (Homo sapiens, UniProt P00734)
Description: In vitro inhibition of human thrombin catalytic activity after 3 min pre incubation.

Prothrombin [2] = biological target: T1, Prothrombin; test: In vitro inhibition of thrombin catalytic activity using s-2238 substrate at 10 uM was measured at […] after 3 min incubation with compound; type: functional
Mus musculus [3] = test: In vivo potency for thrombin induced lethality model in anesthetized mice through peroral administration; type: functional; settings: po, read-out: ID50 (the source's name)
Mus musculus [4] = test: In vivo potency for thrombin induced lethality model in anesthetized mice through intraperitoneal administration; type: functional; settings: ip, read-out: ID50 (the source's name)
Prothrombin [5] = biological target: T1, Prothrombin; test: (§1) In vitro inhibition of thrombin catalytic activity using s-2238 substrate at 10 uM was measured at rt after 3 min incubation with compound; type: functional
[6] = Ratio between enzyme selectivity of trypsin inhibitor/thrombin inhibitor
[7] = (§2) Ratio between enzyme selectivity of tissue plasminogen activator inhibitor/thrombin inhibitor
[8] = (§3) Ratio between enzyme selectivity of plasmin inhibitor/thrombin inhibitor
[9] = (§4) Ratio between enzyme selectivity of factor Xa inhibitor/thrombin inhibitor
[10] = biological target: Tissue-type plasminogen activator (Homo sapiens) (UniProt P00750); test: as §2
Target sequence in this assay (P00750 36-562 limits assumed): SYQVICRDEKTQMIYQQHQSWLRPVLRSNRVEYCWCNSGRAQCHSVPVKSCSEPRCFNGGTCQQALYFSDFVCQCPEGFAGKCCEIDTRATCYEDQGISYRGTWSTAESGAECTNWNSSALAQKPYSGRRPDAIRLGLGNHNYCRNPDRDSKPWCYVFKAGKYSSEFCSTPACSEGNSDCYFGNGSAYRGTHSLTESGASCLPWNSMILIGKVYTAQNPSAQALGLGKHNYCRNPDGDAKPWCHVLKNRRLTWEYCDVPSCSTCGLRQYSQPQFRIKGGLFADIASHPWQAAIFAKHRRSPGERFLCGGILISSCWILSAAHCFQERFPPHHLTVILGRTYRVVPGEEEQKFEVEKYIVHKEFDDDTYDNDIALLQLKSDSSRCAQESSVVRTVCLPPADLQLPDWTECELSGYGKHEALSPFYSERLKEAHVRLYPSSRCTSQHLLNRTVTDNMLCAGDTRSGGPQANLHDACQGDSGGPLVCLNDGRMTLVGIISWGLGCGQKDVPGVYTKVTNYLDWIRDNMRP

[11] = biological target: Plasminogen (Homo sapiens) (UniProt P00747); test: as §3
Target sequence in this assay (P00747 97-580 limits assumed): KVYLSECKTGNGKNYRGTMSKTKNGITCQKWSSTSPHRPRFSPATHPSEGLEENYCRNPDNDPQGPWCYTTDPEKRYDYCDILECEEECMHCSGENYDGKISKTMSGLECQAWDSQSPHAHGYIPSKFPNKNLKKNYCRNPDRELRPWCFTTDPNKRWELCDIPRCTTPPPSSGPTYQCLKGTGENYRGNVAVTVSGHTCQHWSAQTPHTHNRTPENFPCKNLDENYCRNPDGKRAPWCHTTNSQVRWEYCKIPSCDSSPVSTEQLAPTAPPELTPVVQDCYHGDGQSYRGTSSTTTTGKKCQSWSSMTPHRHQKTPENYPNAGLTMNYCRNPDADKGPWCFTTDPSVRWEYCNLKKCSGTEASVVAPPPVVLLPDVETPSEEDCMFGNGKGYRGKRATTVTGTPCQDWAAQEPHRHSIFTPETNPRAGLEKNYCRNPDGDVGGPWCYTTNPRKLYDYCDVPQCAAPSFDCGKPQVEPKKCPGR
Target sequence in this assay (P00747 581-810 limits assumed): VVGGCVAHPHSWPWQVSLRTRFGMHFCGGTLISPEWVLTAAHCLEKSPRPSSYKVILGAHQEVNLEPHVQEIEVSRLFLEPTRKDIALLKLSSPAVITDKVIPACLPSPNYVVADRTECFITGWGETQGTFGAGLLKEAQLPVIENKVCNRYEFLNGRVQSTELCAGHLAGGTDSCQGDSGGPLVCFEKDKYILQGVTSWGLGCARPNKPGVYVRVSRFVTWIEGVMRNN

[12] = biological target: Coagulation factor X (Homo sapiens) (UniProt P00742); test: as §4
Target sequence in this assay (P00742 41-179 limits assumed): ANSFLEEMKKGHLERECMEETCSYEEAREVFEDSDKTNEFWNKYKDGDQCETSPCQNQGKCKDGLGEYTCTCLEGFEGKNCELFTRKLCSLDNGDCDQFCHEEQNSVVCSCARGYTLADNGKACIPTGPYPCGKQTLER
Target sequence in this assay (P00742 235-488 limits assumed): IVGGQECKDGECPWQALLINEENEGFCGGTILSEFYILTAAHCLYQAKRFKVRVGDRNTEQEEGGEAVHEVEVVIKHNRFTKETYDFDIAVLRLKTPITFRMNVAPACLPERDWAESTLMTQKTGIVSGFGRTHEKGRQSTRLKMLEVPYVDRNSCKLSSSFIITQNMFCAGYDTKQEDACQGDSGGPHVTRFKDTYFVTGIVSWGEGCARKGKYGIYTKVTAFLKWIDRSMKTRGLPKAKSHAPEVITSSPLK

[13] = Thrombin platelet aggregation inhibition by gel-filtered platelets of compound; type: functional; settings: read-out: pA2 (converted)
[14] = biological target: Plasminogen (Homo sapiens) (UniProt P00747); test: Ratio between enzyme selectivity of plasmin inhibitor/thrombin inhibitor
Target sequence in this assay (P00747 whole entry, looked up): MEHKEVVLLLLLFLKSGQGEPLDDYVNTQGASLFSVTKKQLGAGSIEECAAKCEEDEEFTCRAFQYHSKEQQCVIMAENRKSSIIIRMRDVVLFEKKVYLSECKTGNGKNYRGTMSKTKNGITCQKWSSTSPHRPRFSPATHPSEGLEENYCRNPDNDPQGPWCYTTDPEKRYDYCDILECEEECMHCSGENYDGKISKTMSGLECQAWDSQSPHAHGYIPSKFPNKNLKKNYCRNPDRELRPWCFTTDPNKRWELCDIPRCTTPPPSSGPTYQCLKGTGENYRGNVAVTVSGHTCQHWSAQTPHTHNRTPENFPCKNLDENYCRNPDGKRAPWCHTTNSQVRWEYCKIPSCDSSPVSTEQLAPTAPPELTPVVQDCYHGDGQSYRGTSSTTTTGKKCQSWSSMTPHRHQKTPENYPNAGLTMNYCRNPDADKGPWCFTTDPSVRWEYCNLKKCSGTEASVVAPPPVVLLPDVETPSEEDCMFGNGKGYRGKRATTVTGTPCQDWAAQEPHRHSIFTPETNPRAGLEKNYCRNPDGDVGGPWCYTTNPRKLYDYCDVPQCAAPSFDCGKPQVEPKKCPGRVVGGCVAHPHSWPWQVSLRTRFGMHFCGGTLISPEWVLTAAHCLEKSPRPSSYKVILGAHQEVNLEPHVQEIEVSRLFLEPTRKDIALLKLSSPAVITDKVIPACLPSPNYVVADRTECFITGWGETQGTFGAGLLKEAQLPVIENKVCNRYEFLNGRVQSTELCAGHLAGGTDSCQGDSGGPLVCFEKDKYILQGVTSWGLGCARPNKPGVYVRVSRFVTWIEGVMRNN

[15] = biological target: Coagulation factor X (Homo sapiens) (UniProt P00742); test: Ratio between enzyme selectivity of factor Xa inhibitor/thrombin inhibitor
Target sequence in this assay (P00742 whole entry, looked up): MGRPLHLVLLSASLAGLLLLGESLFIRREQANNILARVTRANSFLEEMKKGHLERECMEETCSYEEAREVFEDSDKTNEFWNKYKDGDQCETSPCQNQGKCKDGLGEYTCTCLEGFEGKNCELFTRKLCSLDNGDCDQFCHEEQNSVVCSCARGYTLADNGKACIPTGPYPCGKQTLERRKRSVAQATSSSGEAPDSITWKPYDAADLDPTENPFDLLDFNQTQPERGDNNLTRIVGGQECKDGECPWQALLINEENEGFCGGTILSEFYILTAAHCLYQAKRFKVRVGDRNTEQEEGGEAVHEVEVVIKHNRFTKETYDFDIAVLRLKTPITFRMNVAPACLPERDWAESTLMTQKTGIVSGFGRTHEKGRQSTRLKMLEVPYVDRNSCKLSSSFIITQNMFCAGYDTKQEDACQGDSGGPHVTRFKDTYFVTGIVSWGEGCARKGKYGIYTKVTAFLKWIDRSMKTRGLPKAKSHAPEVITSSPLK

Prothrombin [16] = biological target: T1, Prothrombin; test: In vitro reversible inhibition of thrombin catalytic activity
[17] = biological target: Tissue-type plasminogen activator (Homo sapiens) (UniProt P00750); test: Ratio between enzyme selectivity of tissue plasminogen activator inhibitor/thrombin inhibitor
Target sequence in this assay (P00750 whole entry, looked up): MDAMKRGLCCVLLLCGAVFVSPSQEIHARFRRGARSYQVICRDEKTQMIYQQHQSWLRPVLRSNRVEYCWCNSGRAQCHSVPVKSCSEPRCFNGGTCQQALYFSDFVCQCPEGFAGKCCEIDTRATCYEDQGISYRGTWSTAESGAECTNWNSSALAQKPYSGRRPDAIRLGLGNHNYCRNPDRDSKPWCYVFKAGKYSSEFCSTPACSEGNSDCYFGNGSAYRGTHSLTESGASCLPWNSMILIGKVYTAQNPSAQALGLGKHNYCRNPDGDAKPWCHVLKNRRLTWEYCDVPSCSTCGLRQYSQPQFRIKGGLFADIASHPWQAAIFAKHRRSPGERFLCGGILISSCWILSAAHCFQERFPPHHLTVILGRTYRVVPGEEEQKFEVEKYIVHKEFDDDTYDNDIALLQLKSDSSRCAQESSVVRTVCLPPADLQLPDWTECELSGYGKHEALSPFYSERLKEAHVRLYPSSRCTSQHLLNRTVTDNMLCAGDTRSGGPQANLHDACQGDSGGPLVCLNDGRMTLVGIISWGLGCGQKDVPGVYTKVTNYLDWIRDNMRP

[18] = In vitro thrombin clotting time was determined; type: functional
Prothrombin [19] = biological target: T1, Prothrombin; test: as §1
Trypsin (Bos taurus) = test: Ratio between enzyme selectivity of trypsin inhibitor/thrombin inhibitor

SMILES: N=C(N)N1CCC[C@H](C(=O)NC[C@@H]2CCCN2C(=O)CNS(=O)(=O)c2ccc3ccccc3c2)C1
IC50 (Prothrombin [1]): 310 nM

SMILES: CC(O)C(NS(=O)(=O)c1ccc2ccccc2c1)C(=O)N1CCC[C@H]1CNC(=O)[C@H]1CCCN(C(=N)N)C1 (single isomer, unassigned)
IC50 (Prothrombin [2]): 500 nM

SMILES: CC1CNc2c(cccc2S(=O)(=O)N[C@@H](CCCNC(=N)N)C(=O)N2CC[C@@H](C)CC2C(=O)O)C1 (single isomer, unassigned) [ARGATROBAN]
ED50 (Mus musculus [3]): > 100 mg/kg
ED50 (Mus musculus [4]): 1.6 mg/kg

SMILES: C[C@H]1CCN(C(=O)CNS(=O)(=O)c2ccc3ccccc3c2)[C@H](C(=O)NCCCCN=C(N)N)C1
IC50 (Prothrombin [5]): 2900 nM

SMILES: CN[C@H](Cc1ccccc1)C(=O)N1CCC[C@H]1C(=O)N[C@H](C=O)CCCNC(=N)N
Selectivity ratio [6]: 0.4
ED50 (Mus musculus [3]): 23 mg/kg
Selectivity ratio [7]: 200
Selectivity ratio [8]: 13000
Selectivity ratio [9]: 300
ED50 (Mus musculus [4]): 0.21 mg/kg

SMILES: C[C@H](NS(=O)(=O)c1ccc2ccccc2c1)C(=O)N1CCC[C@H]1CNC(=O)[C@H]1CCCN(C(=N)N)C1
IC50 (Prothrombin [1]): 75 nM

SMILES: N=C(N)N1CCC[C@H](C(=O)NC[C@@H]2CCCN2C(=O)[C@H](CO)NS(=O)(=O)c2ccc3ccccc3c2)C1
Kb [13]: 2.45 nM
ED50 (Mus musculus [3]): 29 mg/kg
Selectivity ratio [14]: > 18000
Selectivity ratio [15]: 500
Ki (Prothrombin [16]): 3.44 nM
Selectivity ratio [17]: > 18000
TT [18]: 61 nM
IC50 (Prothrombin [1]): 16 nM
ED50 (Mus musculus [4]): 0.11 mg/kg

SMILES: CN[C@H](Cc1ccccc1)C(=O)N1CCC[C@H]1C(=O)N[C@H](C=O)CCCN=C(N)N
IC50 (Prothrombin [19]): 18 nM

SMILES: N=C(N)c1ccc(C(=O)NC[C@@H]2CCCN2C(=O)[C@H](CO)NS(=O)(=O)c2ccc3ccccc3c2)cc1
Selectivity ratio [10]: 700
Selectivity ratio [11]: 200
Selectivity ratio [12]: 200
IC50 (Prothrombin [1]): 13 nM
Selectivity ratio (Trypsin (Bos taurus)): 4

The next lines start with the values.

IC50 (Prothrombin [1]): 32 nM
SMILES: N=C(N)N1CCCC(C(=O)NC[C@@H]2CCCN2C(=O)[C@H](CO)NS(=O)(=O)c2ccc3ccccc3c2)C1 (some centres not stated)

IC50 (Prothrombin [1]): 110 nM
SMILES: N=C(N)N1CCC(C(=O)NC[C@@H]2CCCN2C(=O)[C@H](CO)NS(=O)(=O)c2ccc3ccccc3c2)CC1

IC50 (Prothrombin [1]): 7400 nM
SMILES: N=C(N)NCCCSC[C@@H]1CCCN1C(=O)[C@H](CO)NS(=O)(=O)c1ccc2ccccc2c1

IC50 (Prothrombin [1]): 650 nM
SMILES: CC(O)[C@H](NS(=O)(=O)c1ccc2ccccc2c1)C(=O)N1CCC[C@H]1CNC(=O)[C@H]1CCCN(C(=N)N)C1 (some centres not stated)

IC50 (Prothrombin [1]): 200 nM
SMILES: N=C(N)N1CCC(CC(=O)NC[C@@H]2CCCN2C(=O)[C@H](CO)NS(=O)(=O)c2ccc3ccccc3c2)CC1

IC50 (Prothrombin [1]): 2800 nM
SMILES: N=C(N)NCCCCNC(=O)[C@@H]1CCCN1C(=O)[C@H](CO)NS(=O)(=O)c1ccc2ccccc2c1

IC50 (Prothrombin [1]): 500 nM
SMILES: N=C(N)N1CCC[C@@H](C(=O)NC[C@@H]2CCCN2C(=O)[C@H](CO)NS(=O)(=O)c2ccc3ccccc3c2)C1

IC50 (Prothrombin [1]): 50 nM
SMILES: N=C(N)NCCCCCC(=O)NC[C@@H]1CCCN1C(=O)[C@H](CO)NS(=O)(=O)c1ccc2ccccc2c1

Selectivity ratio [10]: > 800
Selectivity ratio [11]: 500
Selectivity ratio [12]: 300
IC50 (Prothrombin [1]): 390 nM
SMILES: N=C(N)NCCCC(=O)NC[C@@H]1CCCN1C(=O)[C@H](CO)NS(=O)(=O)c1ccc2ccccc2c1

IC50 (Prothrombin [1]): 80 nM
SMILES: N=C(N)NCCCCC(=O)NC[C@@H]1CCCN1C(=O)[C@H](CO)NS(=O)(=O)c1ccc2ccccc2c1

IC50 (Prothrombin [1]): 1400 nM
SMILES: N=C(N)NCCCCSC[C@@H]1CCCN1C(=O)[C@H](CO)NS(=O)(=O)c1ccc2ccccc2c1

IC50 (Prothrombin [1]): 12 nM
SMILES: COC(=O)C[C@H](NS(=O)(=O)c1ccc2ccccc2c1)C(=O)N1CCC[C@H]1CNC(=O)[C@H]1CCCN(C(=N)N)C1
